“Also recorded” adds a separate entry of the source.
What was measured:
[1] = tested on: IL-12-activated peritoneal macrophages; assay: Viability of IL-12-activated peritoneal macrophages (MTT); format: cell-based, mice; details: 50 mM AG-490
Description: In vitro IL-12 activation and AG-490 treatment of macrophages. Peritoneal macrophages (2×10^5/well) are incubated in medium supplemented with either PBS, or rIL-12 (2 ng/ml), or AG-490 ([…]). Forty-eight hours later, the cultures are renewed by addition of fresh medium with either AG-490 or rIL-12 or PBS. Activation of macrophages is determined by nitric oxide production. Macrophage viability is determined by cleavage of tetrazolium salt in an MTT assay.

[2] = tested on: myeloma cells with activated STAT3; assay: In vitro apoptosis assay of murine myeloma cells; format: cell-based
Description: In vitro apoptosis assay. After a 24 hours incubation with LIMEM medium containing […] AG-490, cells are stained with Annexin V-PE and 7-Amino-actinomycin D (PharMingen, San Diego, Calif.). Dual-color fluorescence is measured on a FACScan flow cytometer and analyzed using CellQuest software (Becton Dickinson, Mountain View, Calif.).

[3] = tested on: MPC11 tumors; assay: MPC11 myeloma tumor growth in vivo; set-up: species or system BALB/c mice
Description: Mice and tumor formation in vivo. Six- to eight-week old female BALB/c mice are obtained from the National Cancer Institute (Frederick, Md.). Cohorts of 3-5 mice per group are used for these experiments. Mice are shaved on the right flank and injected subcutaneously (s.c.) with 5×10^5 of either MOPC or MPC11 cells in […] of PBS to induce tumors.
In vivo treatment with AG-490 and IL-12. When tumors reach about 5 […] in diameter, AG-490 treatment of tumors is initiated and continued daily for 7-10 days. For MOPC tumors, injections of 0.85 mg/day of AG-490 are given intratumorally, supplemented with 0.5 mg/day of AG-490 i.p. For MPC11 tumors, the intratumoral treatment is halved while the i.p. dose remains the same. Control mice receive 50% DMSO vehicle alone in the same volume as the AG-490 treatment group. Recombinant IL-12 is given s.c. at either 100 ng or 200 ng every other day. Tumor growth is monitored daily by measuring two perpendicular tumor diameters with a caliper, and tumor volume was calculated according to the formula V=0.52*a*b(a+b)/2 (a=smallest superficial diameter; b=largest superficial diameter).

[4] = tested on: STAT3; assay: EMSA of constitutive STAT3 DNA-binding activity in MDA-MB-468 breast carcinoma cells; format: cell-based, human; details: MDA-MB-468 cells; dose-dependent
Description: FIG. 6: Src and JAK Inhibitors Block Growth and STAT3 Activation in Breast Carcinoma Cells. MDA-MD-468 cells are treated with inhibitors of EGF receptor (PD158780), Src (PD180970), or JAKs (AG490), and effects on cell growth (Panel A) and STAT3 DNA-binding activity (Panel B) are determined.
STAT DNA-binding activity in human breast cancer cell lines is examined by electrophoretic mobility shift assays (EMSA) (Garcia et al., 1997, Cell Growth Diff. 8:1267-1276). In these experiments, EMSAs are performed using the ^32P-labeled sis-inducible element (SIE) as a probe to detect STAT DNA-binding activity in nuclear extracts of cells. This synthetic DNA oligonucleotide probe is a high-affinity mutant of the c-fos SIE, called hSIE, that binds both STAT1 and STAT3 (Yu, et al., 1995, Science 269:81-83). […] This activation is constitutive and occurs in the absence of exogenous EGF stimulation. By contrast, STAT3 activation is not detected in any of the three cell lines derived from normal breast tissue.
The involvement of these, and other, tyrosine kinases in STAT3 activation is tested using specific inhibitors of JAK family kinases, and the EGF receptor and Src family kinases.

[5] = tested on: MOPC tumors; assay: TUNEL assay of MOPC tumors; format: in vivo, BALB/c mice; details: regressing MOPC tumors
Description: Terminal deoxynucleotidyltransferase-mediated dUTP-Digoxigenin nick-end-labeling (TUNEL) assay. MOPC tumors that receive either AG-490 or 50% DMSO treatment are used for this assay. Three-μm sections from paraffinized tissues are dewaxed and rehydrated according to standard protocols. After incubation with proteinase K (30 min at 21° C.), the TUNEL reaction mixture (Boehringer Mannheim, Indianapolis, Ind.) is added to rinsed slides, which are incubated in a humidified chamber for […] at 37° C. This is followed by incubating with Converter-AP (50 ml) and substrate solution (50 ml). The reaction is visualized by light microscopy.

[6] = tested on: Bcl-xL; assay: Bcl-xL expression (RT-PCR, Western blot) in U266 cells; format: cell-based, human; set-up: dose or concentration left out as unconfirmed
Description: Cells are lysed in a buffer composed of 50 mM Tris-Cl, pH 7.4, 5 mM EDTA, 150 mM NaCl, and 0.5% Triton-X 100 containing 1 mg/ml leupeptin and aprotinin, and 1 mM PMSF. Protein content of the cell lysates is quantified by the Bradford assay (Bio-Rad), and […] total protein is dissolved in Laemmli SDS-PAGE sample buffer prior to separation by 10% SDS-PAGE. Proteins are transferred to PVDF membrane and Western blot analysis is performed by standard techniques with ECL detection (Amersham). The Bcl-xL antibody, clone 124 (Dako), is used at a 1:2000 dilution. The Bcl-xL, antibody, clone S-18 (Santa Cruz Biotechnology), is used at a 1:500 dilution. Blots are quantified by densitometry and expression levels were normalized to b-actin (Sigma).
Total RNA is isolated by lysis in guanidine isothiocyanate followed by centrifugation through a cesium chloride gradient. cDNA is prepared from 200 ng of total RNA in a […] reaction with AMV-RT (Boehringer-Mannheim). […] Tem ml of PCR products are electrophoresed on a 5% acrylamide gel and quantified by phosphorimaging using ImageQuant software (Molecular Dynamics).

With `N#C/C(=C\c1ccc(O)c(O)c1)C(=O)NCc1ccccc1` [AG490] the “cell death of IL-12-activated peritoneal macrophages” value [1] was “no cell death is detected”, the “apoptosis of myeloma cells” value [2] was “efficient apoptosis” and the “time to tumor regrowth or metastasis after termination of treatment” value ([3]; MPC11 tumors) was 4 to 7 days. The MPC11 tumor response ([3]; pre-existing MPC11 tumors, all treated mice) was “rapid rejection; also recorded: all of the tumors in AG-490-treated mice regressed”, the “constitutive STAT3 activation (STAT3 DNA-binding activity)” value [4] was “effectively blocked” and the “apoptotic tumor cells (TUNEL)” value [5] was “high numbers of apoptotic cells”. For the same compound, the “bcl-x mRNA expression” value ([6]; AG490, 24 hours) was “significant reduction” and the Bcl-xL protein levels ([6]; AG490, 30 hours) was “nearly absent”.
